These results are taken from patent publication US5614539A, “Urea compounds which are useful as platelet aggregation inhibitors” (G. D. Searle & Co., priority 1995, dated 1997).

In this assay the test system is Dog PRP (platelet aggregation). Description: In-Vitro Platelet Aggregation in PRP (ADP-induced). To be noted: Canis lupus familiaris; dog platelet-rich plasma; ADP 50 um final concentration; 1 minute preincubation at 37° C.; read-out: Dog PRP IC50 or % Inh. The format is cell-based. On the procedure: In-Vitro Platelet Aggregation in PRP
Healthy male or female dogs were fasted for 8 hours prior to drawing blood; then 30 ml whole blood was collected using a butterfly needle and 30 cc plastic syringe with 3 ml of 0.129M buffered sodium citrate (3.8%). The syringe was rotated carefully as blood was drawn to mix the citrate. Platelet-rich plasma (PRP) was prepared by centrifugation at 975×g for 3.17 minutes at room temperature allowing the centrifuge to coast to a stop without braking. The PRP was removed from the blood with a plastic pipette and placed in a plastic capped, 50 mL Corning conical sterile centrifuge tube which was held at room temperature. Platelet poor plasma (PPP) was prepared by centrifuging the remaining blood at 2000×g for 15 minutes at room temperature allowing the centrifuge to coast to a stop without braking. The PRP was adjusted with PPP to a count of 2-3×10^8 platelets per mL. 400 uL of the PRP preparation and 50 uL of the compounds solution to be tested or saline were preincubated for 1 minute at 37° C. in a […].). 50 uL of adenosine 5' diphosphate (ADP) (50 um final concentration) was added to the cuvettes and the aggregation was monitored for 1 minute. […] Results are calculated as follows: Percent of control=[(maximal OD minus initial OD of compound) divided by (maximal OD minus initial OD of control saline)]×100. […]

What is called IC50 is the concentration needed to halve the response being measured. Take `N=C(N)NCCCCCCCNC(=O)NC(CC(=O)O)c1cccnc1` (stereo not drawn) [Example 2, β-[[[[7-[[aminoiminomethyl]amino]heptyl]amino]carbonyl]amino]-3-pyridinepropanoic acid]: the IC50 came to 800 nM.
Consider `N=C(N)NCCCCCCCNC(=O)N[C@@H](CC(=O)O)C(=O)N[C@@H](Cc1ccccc1)C(=O)O` [Example 4, N-[N-[[[[7-[[aminoiminomethyl]amino]heptyl]amino]carbonyl]amino]-L-α-aspartyl]-L-phenylalanine], for which the half-maximal inhibitory concentration (IC50) stood at 1900 nM.
